Laboratory results taken from patent publication US7579369B2, “CB 1 receptor inverse agonists” (Hoffmann-La Roche Inc., priority 2003, dated 2009).

Target: T1, human cannabis CB1 receptor (Homo sapiens, UniProt P21554)
T1 construct: expressed in transfected cells; host or cells: human embryonic kidney (HEK) cells, Semliki Forest Virus system, membrane preparation
Assay: Affinity for cannabinoid CB1 receptors, [3H]-CP-55,940 radioligand binding on HEK cell membranes
Details: affinity for the CB1 receptor
Method: The affinity of the compounds of the invention for cannabinoid CB1 receptors was determined using membrane preparations of human embryonic kidney (HEK) cells in which the human cannabis CB1 receptor is transiently transfected using the Semliki Forest Virus system in conjunction with [3H]-CP-55,940 as radioligand. After incubation of a freshly prepared cell membrane preparation with the [3H]-ligand, with or without addition of compounds of the invention, separation of bound and free ligand was performed by filtration over glassfiber filters. Radioactivity on the filter was measured by liquid scintillation counting.
The compounds of formula (I) show an excellent affinity for the CB1 receptor, determined with the experimental conditions described in Devane et. al. Mol. Pharmacol. 34 (1988) 605-613.

T1 sequence (P21554 whole entry): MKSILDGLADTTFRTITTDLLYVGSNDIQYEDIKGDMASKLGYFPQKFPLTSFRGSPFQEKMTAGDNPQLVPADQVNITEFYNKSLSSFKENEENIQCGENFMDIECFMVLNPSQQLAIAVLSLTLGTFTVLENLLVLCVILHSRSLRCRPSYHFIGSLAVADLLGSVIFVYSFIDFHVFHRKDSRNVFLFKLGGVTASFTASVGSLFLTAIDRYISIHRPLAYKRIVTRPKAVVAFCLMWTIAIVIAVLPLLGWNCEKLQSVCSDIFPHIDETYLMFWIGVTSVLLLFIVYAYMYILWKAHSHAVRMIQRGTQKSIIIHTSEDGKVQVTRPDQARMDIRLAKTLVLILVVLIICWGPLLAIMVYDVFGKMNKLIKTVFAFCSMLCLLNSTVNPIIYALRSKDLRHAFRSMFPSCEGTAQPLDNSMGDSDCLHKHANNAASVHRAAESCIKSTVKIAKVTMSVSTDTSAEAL

Row | SMILES | IC50 [nM]
1 | Cc1c(C(=O)NC2CCCCC2)cc(-c2cc(C(F)(F)F)ccc2Cl)n1C[C@H]1CCCC[C@H]1O (racemic) [Example 294, 5-(2-Chloro-5-trifluoromethyl-phenyl)-1-((1RS,2RS)-2-hydroxy-cyclohexylmethyl)-2-methyl-1H-pyrrole-3-carboxylic acid cyclohexylamide] | < 2000
2 | Cc1c(C(=O)NC2CCCCC2)cc(-c2cc(C(F)(F)F)ccc2F)n1C[C@H]1CCCC[C@H]1O (racemic) [Example 283, 5-(2-Fluoro-5-trifluoromethyl-phenyl)-1-((1RS,2RS)-2-hydroxy-cyclohexylmethyl)-2-methyl-1H-pyrrole-3-carboxylic acid cyclohexylamide] | < 2000
3 | Cc1c(C(=O)NN2CCCCC2)cc(-c2cc(C(F)(F)F)ccc2Cl)n1CC1CCCCC1 [Example 264, 5-(2-Chloro-5-trifluoromethyl-phenyl)-1-cyclohexylmethyl-2-methyl-1H-pyrrole-3-carboxylic acid piperidin-1-ylamide] | < 2000
4 | CCCCNC(=O)c1nc(-c2ccccc2OC)n(CC2CCCCC2)c1C [Example 52, Cyclohexylmethyl-2-(2-methoxy-phenyl)-5-methyl-1H-imidazole-4-carboxylic acid butylamide] | < 2000
5 | CCCCNC(=O)c1cc(-c2cc(C(F)(F)F)cc(C(F)(F)F)c2)n(CC2CCCCC2)c1C [Example 41, 5-(3,5-Bis-trifluoromethyl-phenyl)-1-cyclohexylmethyl-2-methyl-1H-pyrrole-3-carboxylic acid butylamide] | < 2000
6 | COc1cc(C)c(Cl)cc1-c1cc(C(=O)NC2CCCCC2)c(C)n1CC1CCCCC1 [Example 91, 5-(5-Chloro-2-methoxy-4-methyl-phenyl)-1-cyclohexylmethyl-2-methyl-1H-pyrrole-3-carboxylic acid cyclohexylamide] | < 2000
7 | CCCCNC(=O)c1cc(-c2ccc(N3CCCC3)cc2)n(CC2CCCCC2)c1C [Example 19, Cyclohexylmethyl-2-methyl-5-(4-pyrrolidin-1-yl-phenyl)-1H-pyrrole-3-carboxylic acid butylamide] | < 2000
8 | COc1ccccc1-c1nc(C(=O)NN2CCCCC2)c(C)n1CC1CCCCC1 [Example 54, Cyclohexylmethyl-2-(2-methoxy-phenyl)-5-methyl-1H-imidazole-4-carboxylic acid piperidin-1-ylamide] | < 2000
9 | Cc1c(C(=O)N[C@@H]2CCCC[C@H]2O)cc(-c2cc(C(F)(F)F)ccc2F)n1CC1CCCCC1O (mixture of isomers) [Example 286] | < 2000
10 | COc1ccc(Cl)cc1-c1cc(C(=O)NC2CCCCC2)c(C)n1CC1CCCCC1 [Example 89, 5-(5-Chloro-2-methoxy-phenyl)-1-cyclohexylmethyl-2-methyl-1H-pyrrole-3-carboxylic acid cyclohexylamide] | < 2000
11 | Cc1c(C(=O)N[C@@H]2CCCC[C@H]2O)cc(-c2cc(C(F)(F)F)ccc2C(F)(F)F)n1CCC1CC1 [Example 290, 5-(2,5-Bis-trifluoromethyl-phenyl)-1-(2-cyclopropyl-ethyl)-2-methyl-1H-pyrrole-3-carboxylic acid ((1R,2R)-2-hydroxy-cyclohexyl)-amide] | < 2000
12 | COc1ccc(F)cc1-c1cc(C(=O)NC2CCCCC2)c(C)n1CC1CC1 [Example 194, Cyclopropylmethyl-5-(5-fluoro-2-methoxy-phenyl)-2-methyl-1H-pyrrole-3-carboxylic acid cyclohexylamide] | < 2000
13 | Cc1ccc(C(F)(F)F)cc1-c1cc(C(=O)N[C@@H]2CCCC[C@H]2O)c(C)n1CC1CCCCC1 [Example 301, Cyclohexylmethyl-2-methyl-5-(2-methyl-5-trifluoromethyl-phenyl)-1H-pyrrole-3-carboxylic acid ((1R,2R)-2-hydroxy-cyclohexyl)-amide] | < 2000
14 | Cc1c(C(=O)NC2CCCCC2)cc(-c2cc(C(F)(F)F)ccc2F)n1C[C@@H]1CCCC[C@H]1O (racemic) [Example 282, 5-(2-Fluoro-5-trifluoromethyl-phenyl)-1-((1SR,2RS)-2-hydroxy-cyclohexylmethyl)-2-methyl-1H-pyrrole-3-carboxylic acid cyclohexylamide] | < 2000
15 | CCCCNC(=O)c1cc(-c2cc(OC)ccc2OC)n(CC2CCCCC2)c1C [Example 21, Cyclohexylmethyl-5-(2,5-dimethoxy-phenyl)-2-methyl-1H-pyrrole-3-carboxylic acid butylamide] | < 2000
